tested on: human TH17 cells; assay: Inhibition of IL-17 release from human TH17 cells; type: cell-based; conditions: Homo sapiens, 96 h, isolated human TH17 cells, 4 days culture, IL-17A by HTRF; read-out: pIC50 IL-17 release (converted)
Description: Inhibition of IL-17 Release from Human TH17 Cells (IL-17 Release)
This test is designed to screen compounds for their inhibitory effect on the release of IL-17 from isolated and cultured human TH17 cells.
Peripheral blood mononuclear cells (PBMC) were isolated from heparin treated human whole blood fromhealthy donors by density gradient centrifugation. TH17 cells (CD4+CXCR3-CCR6+) were enriched using a human TH17 Cell Enrichment Kit (Stemcell Technologies) according to the manufacturer's protocol. […] On day 4 supernatants were collected and IL-17A was measured using a Human IL-17 HTRF Assay kit (Cisbio Bioassays) according to the manufacturer's protocol. […] Results

Row | SMILES | IC50
1 | CC(=O)N1Cc2cc(S(=O)(=O)CC(C)C)ccc2C1C(=O)Nc1ccc(C(O)(C(F)(F)F)C(F)(F)F)cc1 (stereo not drawn) [Example 1001, 2-Acetyl-N-[4-(1,1,1,3,3,3-hexafluoro-2-hydroxypropan-2-yl)phenyl]-5-[(2-methylpropyl)sulfonyl]-2,3-dihydro-1H-isoindole-1-carboxamide] | 100 nM
2 | CCS(=O)(=O)c1ccc2c(c1)CNC2C(=O)Nc1ccc(C(O)(C(F)(F)F)C(F)(F)F)cc1 (stereo not drawn) [Example 100, 5-(Ethylsulfonyl)-N-[4-(1,1,1,3,3,3-hexafluoro-2-hydroxypropan-2-yl)phenyl]-2,3-dihydro-1H-isoindole-1-carboxamide] | 39.8 nM
3 | CS(=O)(=O)c1ccc2c(c1)CN(C(=O)C1CC(O)C1)C2C(=O)Nc1ccc(C(O)(C(F)(F)F)C(F)(F)F)cc1 (stereo not drawn) [Example 430, N-[4-(1,1,1,3,3,3-Hexafluoro-2-hydroxypropan-2-yl)phenyl]-2-[(trans-3-hydroxycyclobutyl)carbonyl]-5-(methylsulfonyl)-2,3-dihydro-1H-isoindole-1-carboxamide] | 126 nM
4 | CCC(OC)C(=O)N1Cc2cc(S(C)(=O)=O)ccc2C1C(=O)Nc1ccc(C(O)(C(F)(F)F)C(F)(F)F)cc1 (stereo not drawn) [Example 447, N-[4-(1,1,1,3,3,3-Hexafluoro-2-hydroxypropan-2-yl)phenyl]-2-(2-methoxybutanoyl)-5-(methylsulfonyl)-2,3-dihydro-1H-isoindole-1-carboxamide] | 50.1 nM
5 | O=C(Nc1ccc(C(O)(C(F)(F)F)C(F)(F)F)cc1)C1NCc2cc(S(=O)(=O)CC3CC3)ccc21 (stereo not drawn) [Example 200, 5-[(Cyclopropylmethyl)sulfonyl]-N-[4-(1,1,1,3,3,3-hexafluoro-2-hydroxypropan-2-yl)phenyl]-2,3-dihydro-1H-isoindole-1-carboxamide] | 31.6 nM
6 | O=C(Nc1ccc(C(O)(C(F)(F)F)C(F)(F)F)cc1)C1c2ccc(S(=O)(=O)CC3CC3)cc2CN1C(=O)C1CCOC1 (stereo not drawn) [Example 210, 5-[(Cyclopropylmethyl)sulfonyl]-N-[4-(1,1,1,3,3,3-hexafluoro-2-hydroxypropan-2-yl)phenyl]-2-(tetrahydrofuran-3-ylcarbonyl)-2,3-dihydro-1H-isoindole-1-carboxamide] | 25.1 nM
7 | CCS(=O)(=O)c1ccc2c(c1)CN(C(=O)C1CCCO1)C2C(=O)Nc1ccc(C(O)(C(F)(F)F)C(F)(F)F)cc1 (stereo not drawn) [Example 114, 5-(Ethylsulfonyl)-N-[4-(1,1,1,3,3,3-hexafluoro-2-hydroxypropan-2-yl)phenyl]-2-(tetrahydrofuran-2-ylcarbonyl)-2,3-dihydro-1H-isoindole-1-carboxamide] | 31.6 nM
8 | CNS(=O)(=O)c1ccc2c(c1)CN(C(=O)[C@H]1CCCO1)C2C(=O)Nc1ccc(C(O)(C(F)(F)F)C(F)(F)F)cc1 (stereo partly drawn) [Example 310, N-[4-(1,1,1,3,3,3-Hexafluoro-2-hydroxypropan-2-yl)phenyl]-5-(methylsulfamoyl)-2-[(2R)-tetrahydrofuran-2-ylcarbonyl]-2,3-dihydro-1H-isoindole-1-carboxamide] | 31.6 nM
9 | CC(=O)N1Cc2cc(S(C)(=O)=O)ccc2C1C(=O)Nc1ccc(C(O)(C(F)(F)F)C(F)(F)F)c(F)c1 (stereo not drawn) [Example 435, 2-Acetyl-N-[3-fluoro-4-(1,1,1,3,3,3-hexafluoro-2-hydroxypropan-2-yl)phenyl]-5-(methylsulfonyl)-2,3-dihydro-1H-isoindole-1-carboxamide] | 20 nM
10 | CNS(=O)(=O)c1ccc2c(c1)CN(C(=O)C1(OC)CC1)C2C(=O)Nc1ccc(C(O)(C(F)(F)F)C(F)(F)F)cc1 (stereo not drawn) [Example 306, N-[4-(1,1,1,3,3,3-Hexafluoro-2-hydroxypropan-2-yl)phenyl]-2-[(1-methoxycyclopropyl)carbonyl]-5-(methylsulfamoyl)-2,3-dihydro-1H-isoindole-1-carboxamide] | 20 nM
11 | CNS(=O)(=O)c1ccc2c(c1)CNC2C(=O)Nc1ccc(C(O)(C(F)(F)F)C(F)(F)F)cc1 (stereo not drawn) [Example 300, N-[4-(1,1,1,3,3,3-hexafluoro-2-hydroxypropan-2-yl)phenyl]-5-(methylsulfamoyl)-2,3-dihydro-1H-isoindole-1-carboxamide] | 25.1 nM
12 | CCS(=O)(=O)c1ccc2c(c1)CN(C(=O)CC#N)C2C(=O)Nc1ccc(C(O)(C(F)(F)F)C(F)(F)F)cc1 (stereo not drawn) [Example 116, 2-(Cyanoacetyl)-5-(ethylsulfonyl)-N-[4-(1,1,1,3,3,3-hexafluoro-2-hydroxypropan-2-yl)phenyl]-2,3-dihydro-1H-isoindole-1-carboxamide] | 200 nM
13 | N#CC1(C(=O)N2Cc3cc(S(=O)(=O)CC4CC4)ccc3C2C(=O)Nc2ccc(C(O)(C(F)(F)F)C(F)(F)F)cc2)CC1 (stereo not drawn) [Example 209, 2-[(1-Cyanocyclopropyl)carbonyl]-5-[(cyclopropylmethyl)sulfonyl]-N-[4-(1,1,1,3,3,3-hexafluoro-2-hydroxypropan-2-yl)phenyl]-2,3-dihydro-1H-isoindole-1-carboxamide] | 25.1 nM
14 | COCCS(=O)(=O)c1ccc2c(c1)CNC2C(=O)Nc1ccc(C(O)(C(F)(F)F)C(F)(F)F)cc1 (stereo not drawn) [Example 700, N-(4-(1,1,1,3,3,3-hexafluoro-2-hydroxypropan-2-yl)phenyl)-5-((2-methoxyethyl)sulfonyl)isoindoline-1-carboxamide] | 100 nM
15 | C[C@H](F)CC(=O)N1Cc2cc(S(C)(=O)=O)ccc2C1C(=O)Nc1ccc(C(O)(C(F)(F)F)C(F)(F)F)cc1 (stereo partly drawn) [Example 413, 2-[(3S)-3-Fluorobutanoyl]-N-[4-(1,1,1,3,3,3-hexafluoro-2-hydroxypropan-2-yl)phenyl]-5-(methylsulfonyl)-2,3-dihydro-1H-isoindole-1-carboxamide] | 31.6 nM
16 | CS(=O)(=O)c1ccc2c(c1)CN(C(=O)C1(F)CC1)C2C(=O)Nc1ccc(C(O)(C(F)(F)F)C(F)(F)F)cc1 (stereo not drawn) [Example 446, 2-[(1-Fluorocyclopropyl)carbonyl]-N-[4-(1,1,1,3,3,3-hexafluoro-2-hydroxypropan-2-yl)phenyl]-5-(methylsulfonyl)-2,3-dihydro-1H-isoindole-1-carboxamide] | 31.6 nM
17 | COC1(CC(=O)N2Cc3cc(S(=O)(=O)CC4CC4)ccc3C2C(=O)Nc2ccc(C(O)(C(F)(F)F)C(F)(F)F)cc2)CC1 (stereo not drawn) [Example 205, 5-[(Cyclopropylmethyl)sulfonyl]-N-[4-(1,1,1,3,3,3-hexafluoro-2-hydroxypropan-2-yl)phenyl]-2-[(1-methoxycyclopropyl)acetyl]-2,3-dihydro-1H-isoindole-1-carboxamide] | 15.8 nM
18 | CNC(=O)N1Cc2cc(S(=O)(=O)C3CC3)ccc2C1C(=O)Nc1ccc(C(O)(C(F)(F)F)C(F)(F)F)cc1 (stereo not drawn) [Example 610] | 63.1 nM
19 | COC(=O)N1Cc2cc(S(=O)(=O)CC3CC3)ccc2C1C(=O)Nc1ccc(C(O)(C(F)(F)F)C(F)(F)F)cc1 (stereo not drawn) [Example 213, Methyl 5-[(cyclopropylmethyl)sulfonyl]-1-{[4-(1,1,1,3,3,3-hexafluoro-2-hydroxypropan-2-yl)phenyl]carbamoyl}-1,3-dihydro-2H-isoindole-2-carboxylate] | 7.94 nM
20 | CNC(=O)N1Cc2cc(S(=O)(=O)NC)ccc2C1C(=O)Nc1ccc(C(O)(C(F)(F)F)C(F)(F)F)cc1 (stereo not drawn) [Example 314] | 63.1 nM
21 | COC(=O)N1Cc2cc(S(=O)(=O)CC3(C#N)CC3)ccc2C1C(=O)Nc1ccc(C(O)(C(F)(F)F)C(F)(F)F)cc1 (stereo not drawn) [Example 902, Methyl 5-{[(1-cyanocyclopropyl)methyl]sulfonyl}-1-{[4-(1,1,1,3,3,3-hexafluoro-2-hydroxypropan-2-yl)phenyl]carbamoyl}-1,3-dihydro-2H-isoindole-2-carboxylate] | 50.1 nM
22 | CCS(=O)(=O)c1ccc2c(c1)CN(C(=O)C(F)(F)C1CC1)C2C(=O)Nc1ccc(C(O)(C(F)(F)F)C(F)(F)F)cc1 (stereo not drawn) [Example 104, 2-[Cyclopropyl(difluoro)acetyl]-5-(ethylsulfonyl)-N-[4-(1,1,1,3,3,3-hexafluoro-2-hydroxypropan-2-yl)phenyl]-2,3-dihydro-1H-isoindole-1-carboxamide] | 20 nM
23 | CS(=O)(=O)c1ccc2c(c1)CN(C(=O)CC1(O)CC1)C2C(=O)Nc1ccc(C(O)(C(F)(F)F)C(F)(F)F)cc1 (stereo not drawn) [Example 412, N-[4-(1,1,1,3,3,3-Hexafluoro-2-hydroxypropan-2-yl)phenyl]-2-[(1-hydroxycyclopropyl)acetyl]-5-(methylsulfonyl)-2,3-dihydro-1H-isoindole-1-carboxamide] | 25.1 nM
24 | O=C(Nc1ccc(C(O)(C(F)(F)F)C(F)(F)F)cc1)C1c2ccc(S(=O)(=O)CC3CC3)cc2CN1C(=O)CC1(O)CC1 (stereo not drawn) [Example 206, 5-[(Cyclopropylmethyl)sulfonyl]-N-[4-(1,1,1,3,3,3-hexafluoro-2-hydroxypropan-2-yl)phenyl]-2-[(1-hydroxycyclopropyl)acetyl]-2,3-dihydro-1H-isoindole-1-carboxamide] | 39.8 nM
25 | CS(=O)(=O)c1ccc2c(c1)CN(C(=O)CCF)C2C(=O)Nc1ccc(C(O)(C(F)(F)F)C(F)(F)F)cc1 (stereo not drawn) [Example 415, 2-(3-Fluoropropanoyl)-N-[4-(1,1,1,3,3,3-hexafluoro-2-hydroxypropan-2-yl)phenyl]-5-(methylsulfonyl)-2,3-dihydro-1H-isoindole-1-carboxamide] | 31.6 nM
26 | COCC(=O)N1Cc2cc(S(=O)(=O)C3CC3)ccc2C1C(=O)Nc1ccc(C(O)(C(F)(F)F)C(F)(F)F)cc1 (stereo not drawn) [Example 606, 5-(Cyclopropylsulfonyl)-N-[4-(1,1,1,3,3,3-hexafluoro-2-hydroxypropan-2-yl)phenyl]-2-(methoxyacetyl)-2,3-dihydro-1H-isoindole-1-carboxamide] | 31.6 nM

same assay, conditions: isolated human TH17 cells, 4 days culture, IL-17A by HTRF; listed as 303, isomer 2

Row | SMILES | pIC50 IL-17 release
27 | CC[C@@H](O)C(=O)N1Cc2cc(S(=O)(=O)NC)ccc2C1C(=O)Nc1ccc(C(O)(C(F)(F)F)C(F)(F)F)cc1 (single isomer, unassigned) [Example 303, isomer 2] | 7.5

From patent US10988445B2 (AstraZeneca AB, priority 2015, dated 2021)
